# Experimental data taken from ChEMBL document CHEMBL3885861, “Open TG-GATES”.
# Species on record: Rattus norvegicus
# Assay: Open TG-GATES - Regimen: Single
# Format: toxicity, organism-based, Sprague-Dawley
# Design: regimen Single, gender Male, age 6 weeks
# Settings: in vivo, po, route gavage; for APTT / Bas / Eos / Fbg / Hb / Ht / Lym / MCH / MCHC / MCV / Mono / Neu / PT / Plat / RBC / WBC: tissue Blood; for KIDNEY_L / KIDNEY_R / KIDNEY_TOTAL: tissue Kidney; for LIVER: tissue Liver; for ALT / AST / CRE / Cl / DBIL / GLC / IP / LDH / Na / RALB / TBIL / TC / TG / TP / gamma-GTP / BUN: tissue Plasma
# [1] = 0 mg/kg, 3 h, dose level Control
# [2] = 0 mg/kg, 6 h, dose level Control
# [3] = 0 mg/kg, 9 h, dose level Control
# [4] = 0 mg/kg, 24 h, dose level Control
smiles,measurement,setting,value
CC/C(=C(\c1ccccc1)c1ccc(OCCN(C)C)cc1)c1ccccc1 [TAMOXIFEN],TERMINAL_BW,[1],194.3 g
same,APTT,[1],16.9 s
same,Bas,[1],0%
same,Eos,[1],0.8%
same,Fbg,[1],248.6 mg/dL
same,Hb,[1],13 g/dL
same,Ht,[1],39.1%
same,Lym,[1],76%
same,MCH,[1],21.6 pg
same,MCHC,[1],33.2%
same,MCV,[1],65.1 fL
same,Mono,[1],3.6%
same,Neu,[1],19.2%
same,PT,[1],12.2 s
same,Plat,[1],123.1 x10_4/uL
same,RBC,[1],601.8 x10_4/ul
same,WBC,[1],87.4 x10_2/uL
same,KIDNEY_L,[1],0.9 g
same,KIDNEY_R,[1],0.8 g
same,KIDNEY_TOTAL,[1],1.7 g
same,LIVER,[1],8.3 g
same,ALT,[1],47.6 IU/L
same,AST,[1],77.6 IU/L
same,CRE,[1],0.2 mg/dL
same,Cl,[1],106.8 meq/L
same,DBIL,[1],0.02 mg/dL
same,GLC,[1],173.6 mg/dL
same,IP,[1],10.2 mg/dL
same,LDH,[1],69.6 IU/L
same,Na,[1],140.8 meq/L
same,RALB,[1],2.6 g/dL
same,TBIL,[1],0.042 mg/dL
same,TC,[1],86.4 mg/dL
same,TG,[1],94.6 mg/dL
same,TP,[1],5.6 g/dL
same,gamma-GTP,[1],1.4 IU/L
same,TERMINAL_BW,[2],192.7 g
same,APTT,[2],16.1 s
same,Bas,[2],0%
same,Eos,[2],1%
same,Fbg,[2],261.5 mg/dL
same,Hb,[2],13.2 g/dL
same,Ht,[2],39.6%
same,Lym,[2],69.8%
same,MCH,[2],21.8 pg
same,MCHC,[2],33.4%
same,MCV,[2],65.3 fL
same,Mono,[2],3.2%
same,Neu,[2],25.8%
same,PT,[2],12.1 s
same,Plat,[2],118.7 x10_4/uL
same,RBC,[2],607 x10_4/ul
same,WBC,[2],64.1 x10_2/uL
same,KIDNEY_L,[2],0.8 g
same,KIDNEY_R,[2],0.8 g
same,KIDNEY_TOTAL,[2],1.7 g
same,LIVER,[2],7.8 g
same,ALT,[2],37.8 IU/L
same,AST,[2],73 IU/L
same,BUN,[2],9.8 mg/dL
same,CRE,[2],0.2 mg/dL
same,Cl,[2],110.2 meq/L
same,DBIL,[2],0.015 mg/dL
same,GLC,[2],171.2 mg/dL
same,IP,[2],10 mg/dL
same,LDH,[2],52.2 IU/L
same,Na,[2],142.2 meq/L
same,RALB,[2],2.6 g/dL
same,TBIL,[2],0.0425 mg/dL
same,TC,[2],86.5 mg/dL
same,TG,[2],59 mg/dL
same,TP,[2],5.4 g/dL
same,gamma-GTP,[2],1 IU/L
same,TERMINAL_BW,[3],194.3 g
same,APTT,[3],16.5 s
same,Bas,[3],0%
same,Eos,[3],1%
same,Fbg,[3],259.6 mg/dL
same,Hb,[3],12.8 g/dL
same,Ht,[3],38.4%
same,Lym,[3],75.2%
same,MCHC,[3],33.4%
same,MCV,[3],64 fL
same,Mono,[3],3%
same,PT,[3],12.2 s
same,Plat,[3],111.1 x10_4/uL
same,RBC,[3],599.4 x10_4/ul
same,WBC,[3],73.7 x10_2/uL
same,KIDNEY_L,[3],0.8 g
same,KIDNEY_R,[3],0.8 g
same,KIDNEY_TOTAL,[3],1.6 g
same,LIVER,[3],7.1 g
same,ALT,[3],42.4 IU/L
same,AST,[3],71.8 IU/L
same,BUN,[3],10.2 mg/dL
same,CRE,[3],0.2 mg/dL
same,Cl,[3],107.2 meq/L
same,DBIL,[3],0.012 mg/dL
same,GLC,[3],184.6 mg/dL
same,LDH,[3],50 IU/L
same,Na,[3],142.8 meq/L
same,RALB,[3],2.5 g/dL
same,TBIL,[3],0.05 mg/dL
same,TC,[3],84.6 mg/dL
same,TG,[3],37.4 mg/dL
same,TP,[3],5.3 g/dL
same,gamma-GTP,[3],1.6 IU/L
same,TERMINAL_BW,[4],200.5 g
same,APTT,[4],15.5 s
same,Bas,[4],0%
same,Eos,[4],1%
same,Fbg,[4],258.4 mg/dL
same,Hb,[4],13 g/dL
same,Ht,[4],38.9%
same,Lym,[4],70.6%
same,MCH,[4],21.5 pg
same,MCHC,[4],33.5%
same,MCV,[4],64.2 fL
same,Mono,[4],4%
same,Neu,[4],24%
same,PT,[4],12.3 s
same,Plat,[4],116.6 x10_4/uL
same,RBC,[4],605.8 x10_4/ul
same,WBC,[4],89.9 x10_2/uL
same,KIDNEY_L,[4],0.9 g
same,KIDNEY_R,[4],0.9 g
same,KIDNEY_TOTAL,[4],1.8 g
same,LIVER,[4],9.1 g
same,ALT,[4],51.8 IU/L
same,AST,[4],76.2 IU/L
same,BUN,[4],14.6 mg/dL
same,CRE,[4],0.2 mg/dL
same,Cl,[4],107.2 meq/L
same,DBIL,[4],0.012 mg/dL
same,GLC,[4],183.8 mg/dL
same,IP,[4],7.8 mg/dL
same,LDH,[4],69 IU/L
same,Na,[4],142.4 meq/L
same,RALB,[4],2.6 g/dL
same,TBIL,[4],0.034 mg/dL
same,TC,[4],93.2 mg/dL
same,TG,[4],83 mg/dL
same,TP,[4],5.5 g/dL
same,gamma-GTP,[4],1 IU/L
same,TERMINAL_BW,"6 mg/kg, 3 h, dose level Low",191.8 g
